Measurements reported in patent US20100273833A1, “2-SULFINYL- AND 2-SULFONYL-SUBSTITUTED IMIDAZOLE DERIVATIVES AND THEIR USE AS CYTOKINE INHIBITORS” (priority 2005, published 2010).
≈ marks a conversion by molar mass, not a printed value. Counter-ions that a name gives are not always drawn.

How the values were obtained:
Solubility in water = type: physicochemical
[1] = In vitro metabolism, incubation with rat liver microsomes; type: in vitro ADME; conditions: phosphate buffer pH 7.4, NADPH, 37° C., HPLC peak areas
Procedure: The test substances were incubated in standard experiments with rat liver microsomes (phosphate buffer with pH 7.4, NADPH, 37° C.). The biotransformations were stopped after 0, 15, 30 and 60 min by adding acetonitrile and were centrifuged, and the protein-free supernatant was analyzed by HPLC. Resulting metabolites were approximately quantified via the peak areas. The result of the biotransformation of Example 12 and of the corresponding sulfanyl compound, which is representative in terms of the sulfinyl/sulfanyl substitution comparison, is described by way of example. The sulfanyl compound was rapidly converted into a number of metabolites and, after 30 min, less than 1% of the pharmacologically active starting substance remained. Under identical experimental conditions, about 70% of the initial amount of Example 12 were still present after 30 min, and more than 50% were still present after 60 min.

| solubility in water (Solubility in water) | further results | SMILES |
| --- | --- | --- |
| – | melting point: 298.7 °C | Fc1ccc(-c2nc3n(c2-c2ccnc(Nc4ccccc4)c2)CCS3)cc1 [Example 34, {4-[6-(4-Fluorophenyl)-2,3-dihydro-imidazo[2,1-b]thiazol-5-yl]-pyridin-2-yl}-phenyl-amine] |
| 70 µg/mL (≈ 188 µM) | – | CC(=O)Nc1cc(-c2c(-c3ccc(F)cc3)nc([S+](C)[O-])n2C)ccn1 (stereo not drawn) [Example 3, N-{4-[5-(4-Fluorophenyl)-2-methanesulfinyl-3-methyl-3H-imidazol-4-yl]pyridin-2-yl}acetamide] |
| 1120 µg/mL | – | CC(=O)Nc1cc(-c2c(-c3ccc(F)cc3)nc([S+](C)[O-])n2C)ccn1 (stereo not drawn) [Example 3 hydrochloride, N-{4-[5-(4-Fluorophenyl)-2-methanesulfinyl-3-methyl-3H-imidazol-4-yl]pyridin-2-yl}acetamide] |
| 390 µg/mL (≈ 1050 µM) | – | CC(=O)Nc1cc(-c2c(-c3ccc(F)cc3)nc([S+](C)[O-])n2C)ccn1 (stereo not drawn) [Example 3 hydrogensulfate, N-{4-[5-(4-Fluorophenyl)-2-methanesulfinyl-3-methyl-3H-imidazol-4-yl]pyridin-2-yl}acetamide] |
| 1050 µg/mL | – | CC(=O)Nc1cc(-c2c(-c3ccc(F)cc3)nc([S+](C)[O-])n2C)ccn1 (stereo not drawn) [Example 3 hydrobromide, N-{4-[5-(4-Fluorophenyl)-2-methanesulfinyl-3-methyl-3H-imidazol-4-yl]pyridin-2-yl}acetamide] |
| – | initial amount of starting substance still present after 30 min ([1]; 30 min): about 70%; initial amount still present after 60 min ([1]; 60 min): more than 50% | COCCn1c([S+](C)[O-])nc(-c2ccc(F)cc2)c1-c1ccnc(NC(C)C)c1 (stereo not drawn) [Example 12, {4-[5-(4-Fluorophenyl)-2-methanesulfinyl-3-(2-methoxyethyl)-3H-imidazol-4-yl]pyridin-2-yl}isopropylamine] |
| 310 µg/mL | – | CC(=O)Nc1cc(-c2c(-c3ccc(F)cc3)nc([S+](C)[O-])n2C)ccn1 (stereo not drawn) [Example 3 sulfate, N-{4-[5-(4-Fluorophenyl)-2-methanesulfinyl-3-methyl-3H-imidazol-4-yl]pyridin-2-yl}acetamide] |
| 890 µg/mL | – | CC(=O)Nc1cc(-c2c(-c3ccc(F)cc3)nc([S+](C)[O-])n2C)ccn1 (stereo not drawn) [Example 3 methane sulfonate, N-{4-[5-(4-Fluorophenyl)-2-methanesulfinyl-3-methyl-3H-imidazol-4-yl]pyridin-2-yl}acetamide] |
